Assay results published in publication PMC9763612, “Discovery of pyrrole derivatives as acetylcholinesterase-sparing butyrylcholinesterase inhibitor” (Frontiers in Pharmacology, 2022).
Like-named read-outs stand apart in the source and are kept apart here.

How the values were obtained:
[1] = target: T1, eqBChE (BChE from equine serum) (Equus caballus, UniProt P81908); assay: biochemical
T1 construct: BChE (E.C. 3.1.1.8, from equine serum); purchased Sigma-Aldrich; host or cells: equine serum
Protocol: (§1) AChE (E.C. 3.1.1.7, Type V-S, lyophilized powder, from electric eel, 1000 unit), BChE (E.C. 3.1.1.8, from equine serum), ATCI, BTCI, and DTNB were purchased from Sigma-Aldrich. To the experimental group in a 96-well plate, 10 μl AChE or BChE (final concentration is 0.04 U/ml), 25 μl tested compounds, and 65 μl PBS buffer was sequentially added. For the control group, all components were in accordance with those in the experimental group, except that 25 μl tested compounds were replaced by equal volume of PBS. For the blank group, only 100 μl PBS was added. […] The calculation formula is: inhibition rate% = (ODcontrol-ODtest)/(ODcontrol-ODblank)*100.
3. Screen of the most appropriate incubation time for compounds and
In order to find the most appropriate incubation time for compounds and enzyme, to verify whether the incubation time of 25 min is appropriate, and to further improve […]
time, made the inhibition rate-incubation time curves (Figure S1), and calculated the IC50 values of these compounds under different incubation time (Table S1).

[2] = target: T2, eeAChE (AChE from electric eel) (Electrophorus electricus, UniProt O42275); assay: biochemical; conditions: incubation time 25 min; mean ± SD, at least three independent experiments
T2 construct: AChE (E.C. 3.1.1.7, Type V-S, lyophilized powder, from electric eel, 1000 unit); purchased Sigma-Aldrich Type V-S; host or cells: electric eel
T2 sequence (O42275 24-633): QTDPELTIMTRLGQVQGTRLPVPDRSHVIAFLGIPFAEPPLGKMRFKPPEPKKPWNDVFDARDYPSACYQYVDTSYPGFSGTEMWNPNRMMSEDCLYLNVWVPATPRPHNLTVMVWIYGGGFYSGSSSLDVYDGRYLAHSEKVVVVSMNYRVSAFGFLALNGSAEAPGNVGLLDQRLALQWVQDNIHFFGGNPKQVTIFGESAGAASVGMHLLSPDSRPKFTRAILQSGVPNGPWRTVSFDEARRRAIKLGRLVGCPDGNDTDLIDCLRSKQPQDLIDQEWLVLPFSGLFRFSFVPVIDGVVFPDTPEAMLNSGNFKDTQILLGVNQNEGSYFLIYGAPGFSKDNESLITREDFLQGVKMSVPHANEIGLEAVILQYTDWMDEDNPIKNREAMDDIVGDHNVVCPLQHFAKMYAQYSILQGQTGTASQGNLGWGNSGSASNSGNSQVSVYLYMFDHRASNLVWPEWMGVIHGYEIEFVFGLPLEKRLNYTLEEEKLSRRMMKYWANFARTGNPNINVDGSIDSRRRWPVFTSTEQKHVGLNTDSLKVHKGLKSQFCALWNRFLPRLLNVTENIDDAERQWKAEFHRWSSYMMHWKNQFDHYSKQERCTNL
Protocol: as §1

eqBChE = target: T3, eqBChE (Equus caballus, UniProt P81908); assay: Inhibition kinetics of butyrylcholinesterase (reversibility, Lineweaver-Burk, Ki replot); type: biochemical
T3 construct: BChE (E.C. 3.1.1.8, from equine serum); purchased Sigma-Aldrich; host or cells: equine serum
T3 sequence (P81908 whole entry): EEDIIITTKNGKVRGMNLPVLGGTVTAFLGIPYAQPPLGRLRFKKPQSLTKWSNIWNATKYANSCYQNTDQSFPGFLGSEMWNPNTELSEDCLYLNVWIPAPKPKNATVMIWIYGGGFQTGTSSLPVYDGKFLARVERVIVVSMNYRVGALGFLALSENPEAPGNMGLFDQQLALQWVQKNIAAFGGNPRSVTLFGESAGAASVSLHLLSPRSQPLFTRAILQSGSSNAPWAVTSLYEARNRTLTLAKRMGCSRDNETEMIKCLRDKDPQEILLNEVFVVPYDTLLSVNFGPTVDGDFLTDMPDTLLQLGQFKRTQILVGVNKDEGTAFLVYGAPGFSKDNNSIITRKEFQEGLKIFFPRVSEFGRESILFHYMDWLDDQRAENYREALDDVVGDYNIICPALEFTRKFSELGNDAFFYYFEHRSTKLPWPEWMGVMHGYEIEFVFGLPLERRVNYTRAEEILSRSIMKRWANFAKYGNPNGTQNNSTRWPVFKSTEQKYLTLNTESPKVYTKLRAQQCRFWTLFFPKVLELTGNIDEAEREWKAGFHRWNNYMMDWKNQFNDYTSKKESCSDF
From the text: According to the type of interaction between inhibitor and enzyme, there are three reaction types including the reversible, irreversible, and pseudo-irreversible reactions in the cholinesterase catalyzed reaction, and each type has its representative characteristics. By studying the reaction rate changes in enzymatic reactions in the presence of inhibitors, the mechanism of action of inhibitors on enzymes, viz the inhibition type could be determined, which is of great significance for further structural modification and the discovery of compounds with better enzyme inhibitory activity. To reveal the interaction between synthesized inhibitors and eq BChE, we initially chose compound 3p as an example and studied the reversibility of enzymatic reaction in the presence of inhibitor. When the final concentration of substrate BTCI was fixed at 0.2 mM, we deduced from Figure 2A that both compound 3p increased the enzymatic reaction rate to varying degrees with the increase of enzyme concentration. When both the concentrations of eq BChE and BTCI remained constant, the rate of the enzymatic reaction decreased with the increase of inhibitor concentration.
In the process of reversible inhibition reaction, inhibitors can be divided into competitive, non-competitive, mixed competitive, and anti-competitive inhibitors according to the effect of inhibitors and substrate on enzyme ([Liu et al., 2022]). […] For compound 3p, the Km values increased while the Vmax values decreased compared with those in the absence of inhibitors, which was not in accordance with the characteristics of competitive, non-competitive, and anti-competitive inhibitors. Therefore, non-competitive in combination with competitive inhibition and/or non-competitive in combination with anti-competitive inhibition maybe existed in the reaction systems of compound 3p with enzyme (Figure 2B). […] However, the binding affinity of compounds 3p with the free enzyme or the substrate-enzyme complex was different. […]

[3] = incubation time 5 min, read-out: IC50 eqBChE under different incubation time
[4] = incubation time 10 min, read-out: IC50 eqBChE under different incubation time
[5] = incubation time 15 min, read-out: IC50 eqBChE under different incubation time
[6] = incubation time 25 min, mean ± SD, at least three independent experiments, read-out: IC50 eqBChE
[7] = incubation time 45 min, read-out: IC50 eqBChE under different incubation time
[8] = incubation time 65 min, read-out: IC50 eqBChE under different incubation time
[9] = incubation time 85 min, read-out: IC50 eqBChE under different incubation time

T1 sequence (P81908 whole entry): as above

| Structure (SMILES) | IC50 [1, 6] [µM] | IC50 [2] [µM] | also measured |
| --- | --- | --- | --- |
| c1ccc(-c2ccc(-c3ccn(-c4ccccc4)c3)cc2)cc1 [Compound 3s] | 3.76 ± 0.25 | > 50 | IC50 [1, 3]: 5.87 ± 0.23 µM; IC50 [1, 4]: 5.95 ± 0.3 µM; IC50 [1, 5]: 6.05 ± 0.65 µM; IC50 [1, 7]: 4.41 ± 0.15 µM; IC50 [1, 8]: 4.21 ± 0.075 µM; IC50 [1, 9]: 4.38 ± 0.18 µM |
| CSc1ccc(-n2cccc2)cc1 [Compound 3f] | > 50 | > 50 |  |
| Cc1cc(-n2cccc2)no1 [Compound 3k] | > 50 | > 50 |  |
| Clc1ccccc1-n1cccc1 [Compound 3b] | > 50 | > 50 |  |
| Cc1cccc(C)c1-n1cccc1 [Compound 3i] | > 50 | > 50 |  |
| c1ccc(-n2cccc2)nc1 [Compound 3j] | > 50 | > 50 |  |
| COC(=O)c1ccc(-n2cccc2)cc1 [Compound 3h] | > 50 | > 50 |  |
| Brc1ccc(-n2cccc2)cc1 [Compound 3g] | > 50 | > 50 |  |
| c1ccc2nc(-n3cccc3)cnc2c1 [Compound 3l] | > 50 | > 50 |  |
| Brc1cccc(-n2cccc2)c1 [Compound 3d] | > 50 | > 50 |  |
| c1ccc(-c2ccn(-c3ccccc3)c2)cc1 [Compound 3n] | > 50 | > 50 |  |
| c1ccc(Cc2ccn(-c3ccccc3)c2)cc1 [Compound 3m] | > 50 | > 50 |  |
| CC(C)c1ccc(-n2cccc2)cc1 [Compound 3e] | > 50 | > 50 |  |
| FC(F)(F)c1cccc(-c2ccn(-c3ccccc3)c2)c1 [Compound 3r] | > 50 | > 50 |  |
| COc1cccc(-c2ccn(-c3ccccc3)c2)c1 [Compound 3q] | > 50 | > 50 |  |
| COc1ccccc1-c1ccn(-c2ccccc2)c1 [Compound 3o] | 5.37 ± 0.36 | > 50 | IC50 [1, 3]: 4.8 ± 0.38 µM; IC50 [1, 4]: 5.06 ± 1.2 µM; IC50 [1, 5]: 6.87 ± 0.6 µM; IC50 [1, 7]: 6.67 ± 0.61 µM; IC50 [1, 8]: 6.83 ± 0.24 µM; IC50 [1, 9]: 7.63 ± 0.77 µM |
| Cc1ccccc1-n1cccc1 [Compound 3a] | > 50 | > 50 |  |
| Clc1ccccc1-c1ccn(-c2ccccc2)c1 [Compound 3p] | 1.71 ± 0.087 | > 50 | Inhibition mode (eqBChE; Lineweaver-Burk plots): mixed competitive inhibition; Reversibility of inhibition (eqBChE; rate vs. enzyme concentration, BTCI 0.2 mM): reversible; Ki (eqBChE; replot of Lineweaver-Burk slopes vs. inhibitor concentration): 281 nM; IC50 [1, 3]: 0.6 ± 0.1 µM; IC50 [1, 4]: 0.48 ± 0.24 µM; IC50 [1, 5]: 1.95 ± 0.13 µM; IC50 [1, 7]: 2.4 ± 0.11 µM; IC50 [1, 8]: 3.27 ± 0.49 µM; IC50 [1, 9]: 3.2 ± 0.092 µM |
| Cc1cccc(-n2cccc2)c1 [Compound 3c] | > 50 | > 50 |  |
